According to patent publication US20190338284A1, “COMPLEX FOR DRUG DELIVERY AND STABILIZATION AND PREPARATION METHOD THEREOF” (INTEROLIGO CORPORATION, priority 2016, published 2019):
Entries after “also recorded” stand apart in the source; their conditions may differ.

Assays:
Type in all cases: cell-based, human
[1] = test system: BT-474 and MCF-7 breast cancer cell lines; experiment: WST-1 assay of atelocollagen-[ERBB2 aptamer-siRNA conjugate] complex on breast cancer cell lines
Procedure: Cell inhibition efficacy validation of atelcollagen-[ERBB2 aptamer-siRNA conjugate] complex to breast cancer cell lines, i.e., BT-474 and MCF-7, was performed in vitro through WST-1 assay. After treating the breast cancer cell lines with naked ERBB2, atelocollagen-[control aptamer-siRNA conjugate] complex without activity, as well as atelocollagen-[ERBB2 aptamer-siRNA conjugate] complex wherein an effective anticancer agent having excellent anticancer efficacy, that is, siRNA is bound to ERBB2 target aptamer having a cancer cell targeting function, respectively, WST-1 assay was performed.

[2] = test system: BT-474 and MCF-7 breast cancer cell lines; experiment: WST-1 assay of ERBB2 aptamer-siRNA conjugate on breast cancer cell lines
Procedure: In addition, WST-1 assay for the breast cancer cell lines, i.e., BT-474 and MCF-7, was performed. Cell inhibition efficacy validation of ERBB2 aptamer to the breast cancer cell lines was performed in vitro through WST-1 assay. After treating the breast cancer cell lines with a control ERBB2 aptamer without activity, as well as ERBB2 aptamer-siRNA conjugate wherein an effective anticancer agent having excellent anticancer efficacy, that is, siRNA is bound to ERBB2 target aptamer having a cancer cell targeting function, respectively, WST-1 assay was performed.

[3] = test system: BxPC3, Miapaca-2, Panc-1 and capan-1 pancreatic cancer cell lines; experiment: WST-1 assay of aptamer-drug conjugate on pancreatic cancer cell lines; details: WST-1, 0.1 to 100 μM, 72 hours; listed as AS1411 aptamer
Procedure: WST-1 assay for pancreatic cancer cell lines, i.e., BxPC3, Miapaca-2, Panc-1 and capan-1 was performed. Cell inhibition efficacy validation of AS1411-Gem conjugate to the pancreatic cancer cell lines was performed in vitro through WST-1 assay. First, a control aptamer CRO in a naked form without being combined with an anticancer agent, AS1411 having a cancer cell-targeting function, as well as CRO-Gem conjugate and AS1411-Gem conjugate which are combined with an anticancer agent effective to pancreatic cancer, i.e., gemcitabine, respectively, were prepared (Table 2).
Experimental procedure: Each of the pancreatic cancer cell lines, that is, B×PC3, Miapaca-2, Panc-1 and capan-1 (ATCC, RPMI+10% FBS), was seeded on a 96-well plate in a cell number of 1 to 2×10^4 cells/well, which was defined by a cell test method to determine an appropriate cell concentration, followed by growing for 1 day. The aptamer and aptamer-drug conjugate were dissolved in PBS, respectively, and were immediately treated in each well at concentrations from 0.1 μM up to 100 μM. The treated cells were incubated in a 5% CO2 incubator for 72 hours, treated with 10 μl of a reagent solution for WST-1 assay (WST-1, Roche), respectively, followed by measuring the absorbance at 440 nm using an ELISA reader (FIG. 13).

Substance | cell viability and proliferation, comparison of efficacy [1] | cell viability and proliferation, comparison of efficacy [2] | cell viability and proliferation, comparison of efficacy [3]
ERBB2 aptamer-siRNA conjugate (chain 1 AGCUGUCACAGAGGGGCUACUU; chain 2 GUAGCCCCUCUGUGACAGCUU; siRNA conjugated to ERBB2 aptamer, further chemistry not given here) | much better efficacy than the control group | much better efficacy than the ERBB2 aptamer | 
TTTGGTGGTGGTGGTTGTGGTGGTGGTGG (SEQ ID NO: 3) [AS1411] |  |  | much better efficacy than CRO; also recorded: more excellent efficacy than the case of treatment using the original anticancer agent, that is, gemcitabine alone
